melting point [°C] | Compound
206.9 | NS(=O)(=O)c1ccc(-c2cc3n(c2-c2ccc(F)cc2)CCC3)cc1
199.6 | Cc1c(C(F)(C(F)(F)F)C(F)(F)F)c(-c2ccc(S(N)(=O)=O)cc2)c2n1CCC2
191 | CS(=O)(=O)c1ccc(-c2c(-c3ccc(F)cc3)cn3c2CCC3)cc1
